Assay results taken from patent publication US5514706A, “Pharmaceutical compounds” (Eli Lilly and Company, priority 1994, dated 1996).
pIC50: −log10 of the molar value.

Experiments:
Assay type in all cases: cell-based
[1] = system: plasminogen activator (PA) activity in bovine retinal capillary endothelial cells; assay: Activation of retinal capillary endothelial cells by phorbol esters (PA activity); conditions: for pIC50: Bos taurus, Endothelial cell, dose-response curves of PA activity, read-out: IC50 from dose-response curves for phorbol ester (activation of PA activity)
Excerpt: (§1) Retinal capillary endothelial cell cultures were initiated from bovine eyes using a modification of the procedure of Buzney et al., Investigative Ophthalmology and Visual Sciences, 24: 470-483. Bovine eyes were transported on ice from a local abattoir. Extraocular muscle was trimmed from the eye, and the eye bisected posterior to the ora serrata. The vitreous and anterior portion of the eye were discarded, and the neuro-retina was gently dissected from the posterior eyecup. The retinas from 20 cattle were pooled and homogenized (5 strokes of a Teflon/glass homogenizer) in Hank's saline. The homogenate was passed through a 350μ filter to remove large debris and a 210μ filter to remove large vessels. The microvessels were trapped on a 85μ filter. The microvessels were resuspended in Hank's saline and digested with 7.5 mg/ml bacterial collagenase (Boeringher Mannhelm, Indianapolis) in Hank's saline for 1 hour at 37° C. The cells were pelleted by centrifugation (100 xg, 10 min), resuspended in 5 ml Endothelial Growth Media (EGM, Clonetics) and seeded in a gelatin-coated T-25 flask. After 24 hours the cells were trypsinized and replated in a gelatin coated T225. At 7 days and again at 14 days the cultures were labeled with acetylated lipoproteins labeled with the fluorescent probe (1,1'-dioctadecyl-3,3,3,3,-tetramethyl-indocarbocyanine perchlorate). The endothelial cells were separated from contaminating cell types using a fluorescent cell sorter as described in Voyta et al., J. Cell Biology. 99: 2034-2040.
(§2) Retinal capillary endothelial cells were seeded into 96-well plates and grown to confluence (10^5 cells/well) in EGM containing 10% fetal bovine serum (FBS). The media was changed to Dubecco's Modified Eagle's Medium with 10% fetal bovine serum 24 hours prior to the assay. The cells were treated with 50 nM 4-b phorbol 12,13-dibutyrate (4-b PDBu) to activate PKC and produce the activated endothelial phenotype characteristic of the diabetic state. The activated cells were treated with a series of dilutions of the test compounds. The phorbol esters and the test compounds were dissolved in DMSO before adding to the culture media. The cultures were incubated at 37° C. for 48 hours. Following treatment, the cells were lysed with 25 mM NH4 OH in 0.5% triton X-100.
(§3) The activation of bovine retinal capillary endothelial cells was monitored through alterations in cellular plasminogen activator (PA) activity in the cell lysates. Plasminogen activator activity was determined in a 50 μl aliquot of cell lysate using the synthetic substrate H-D-valyl-L-leucyl-lysine-p-nitroaniline dihydrochloride (Kabi).
There was also a two fold increase in cell number. […] Dose-response curves generated for 4-b PDBu and 4-b PMA indicated IC50 of 50 nH and 5 nH respectively. Elevated PA activity was observed only after prolonged (at least 8 hours) stimulation with phorbol esters. The PA activity continued to increase in a time and dose dependent manner for up to 72 hours, but constant stimulation with phorbol ester was required to maintain endothelial cell activation.

[2] = system: bovine retinal capillary endothelial cells; assay: Retinal capillary endothelial cell number after phorbol ester treatment; conditions: confluent cells, 48 hours
Excerpt: as §1, with “The endothelial cells were separated from contaminating cell types using a fluorescent cell sorter as described in Voyta et al., J. Cell Biology. 99: 2034-2040.” left out

[3] = system: cultured smooth cells derived from rabbit aorta; assay: 3H-thymidine incorporation (DNA synthesis) in vascular smooth muscle cells stimulated with platelet-derived growth factor; conditions: Oryctolagus cuniculus; 20 ng/ml platelet-derived growth factor, 24 hours
Description: Cells are obtained by explant method as described in Ross, J. Of Cell Bio. 50: 172 (1971). Cells are plated in 96 well microtiter plates for five days. The cultures become confluent and growth arrested. The cells are then transferred to Dulbecco's Modified Eagle's Medium (DMEM) containing 0.5-2% platelet poor plasma, 2 mM L-glutamine, 100 U/ml penicillin, 100 μg ml streptomycin, 1 μ/ml ^3 H-thymidine, 20 ng/ml platelet-derived growth factor and varying concentrations of the compounds. Stock solution of compounds is prepared in dimethyl sulphoxide and then diluted to appropriate concentration (0.01-10 μg/ml) in the above assay medium. Cells are then incubated at 37° C. for 24 hours under 5% CO2 /95% air. At the end of 24 hours, the cells are fixed in methanol. ^3 H thymidine incorporation in DNA was then determined by scintillation counting as described in Bonin et al., Exp. Cell Res. 181:475-482 (1989).
Table 1 discloses the IC50 value of representative compounds tested in the ^3 H-thymidine incorporation model. Thus the invention specifically provides a method of treating restenosis, which comprises administering to a patient in need of treatment an effective amount of a compound of the formula (I).

[4] = system: plasminogen activator (PA) activity in bovine retinal capillary endothelial cells; assay: Inhibition of phorbol ester-induced activation of retinal capillary endothelial cells (plasminogen activator (PA) activity in cell lysates); conditions: Bos taurus, activated with 50 nM 4-b PDBu, 48 hours, cell lysate, read-out: PA ED50
Excerpt: as §1, §2, §3
Cell toxicity was determined in a parallel series of cultures using a neutral red assay. Borenfreund, E. and Puerner, J, J. Tiss. Cult. Meth. 9:7 (1984). […] Table 1 discloses the PA ED50 value in this model for representative compounds. The in vitro endothelial cell model was correlated with in situ and in vivo activities by the following models.

Compound	pIC50 [4]	pIC50 [3]	further results
CCCC(=O)O[C@@H]1[C@@H](C)[C@@]2(O)[C@@H](C=C(CO)C[C@@]3(O)C(=O)C(C)=C[C@@H]23)[C@@H]2C(C)(C)[C@]12OC(=O)CCC [4-a PDBu]	–	–	increase in activation occurred only after treatment with phorbol esters known to activate PKC (yes/no) [1]: not
CCCC(=O)O[C@@H]1[C@@H](C)[C@@]2(O)[C@@H](C=C(CO)C[C@]3(O)C(=O)C(C)=C[C@@H]23)[C@@H]2C(C)(C)[C@]12OC(=O)CCC [4-b PDBu, 4-b phorbol 12,13-dibutyrate]	–	–	increase in activation occurred only after treatment with phorbol esters known to activate PKC (yes/no) [1]: increase in activation occurred; pIC50 [1]: 7.30; increase in PA activity associated with the cell layer ([1]; confluent cells, 48 hours): 12 fold; increase in PA released into the media ([1]; confluent cells, 48 hours): 12 fold; increase in cell number [2]: two
CCCCCCCCCCCCCC(=O)O[C@@H]1[C@@H](C)[C@@]2(O)[C@@H](C=C(CO)C[C@]3(O)C(=O)C(C)=C[C@@H]23)[C@@H]2C(C)(C)[C@]12OC(C)=O [4-b PMA]	–	–	increase in activation occurred only after treatment with phorbol esters known to activate PKC (yes/no) [1]: increase in activation occurred; pIC50 [1]: 8.30
N#CC1=C(N)Oc2ccc3ccccc3c2C1c1ccccc1[N+](=O)[O-] (stereo not drawn) [Example 4, 2-Amino-4-(2-nitrophenyl)-4H-naphtho 2,1-b!pyran-3-carbonitrile]	< 4.70	< 4.52	–
N#CC1=C(N)Oc2ccc3ccccc3c2C1c1cccc(F)c1 (stereo not drawn) [Example 7, 2-Amino-4-(3-fluorophenyl)-4H-naphtho 2,1-b!pyran-3-carbonitrile]	–	5.70	–
N#CC1=C(N)Oc2ccc3ccccc3c2C1c1ccccc1F (stereo not drawn) [Example 9, 2-Amino-4-(2-fluorophenyl) -4H-naphtho 2,1-b!pyran-3-carbonitrile]	< 4.70	< 5.52	–
N#CC1=C(N)Oc2ccc3cc(C(=O)O)ccc3c2C1c1cccc([N+](=O)[O-])c1 (stereo not drawn) [Example 11, 2-Amino-3-cyano-4-(3-nitrophenyl)-4H-naphtho 2,1-b!pyran-7-carboxylic acid]	< 4.70	< 4.52	–
COc1ccc2ccc3c(c2c1)C(c1cccc([N+](=O)[O-])c1)C(C#N)=C(N)O3 (stereo not drawn) [Example 13, 2-Amino-6-methoxy-4-(3-nitrophenyl)-4H-naphtho 2,1-b!pyran-3-carbonitrile]	< 4.70	< 5.52	–
COc1cccc(C2C(C#N)=C(N)Oc3ccc4cc(C(=O)O)ccc4c32)c1 (stereo not drawn) [Example 14, 2-Amino-3-cyano-4-(3-methoxyphenyl)-4H-naphtho 2,1-b!pyran-7-carboxylic acid]	< 4.00	–	–
N#CC1=C(N)Oc2ccc3cc(C(=O)O)ccc3c2C1c1cccc(OC(F)(F)F)c1 (stereo not drawn) [Example 16, 2-Amino-3-cyano-4-3-(trifluoromethoxy)phenyl!-4H-naphtho 2,1-b!pyran-7-carboxylic acid]	< 4.00	–	–

Further lines, with some results ahead:

pIC50 [4]	Compound	pIC50 [3]	further results
6.15	N#CC1=C(N)Oc2ccc3ccccc3c2C1c1cccc([N+](=O)[O-])c1 (stereo not drawn) [Example 2, 2-Amino-4-(3-nitrophenyl) -4H-naphtho 2,1-b!pyran-3-carbonitrile]	5.60	–
< 4.70	N#CC1=C(N)Oc2ccc3ccccc3c2C1c1ccc([N+](=O)[O-])cc1 (stereo not drawn) [Example 3, 2-Amino-4-(4-nitrophenyl)-4H-naphtho 2,1-b!pyran-3-carbonitrile]	5.10	–
6.15	N#CC1=C(N)Oc2ccc3ccccc3c2C1c1cccc(Br)c1 (stereo not drawn) [Example 5, 2-Amino-4-(3-bromophenyl)-4H-naphtho 2,1-b!pyran-3-carbonitrile]	5.74	–
6.00	N#CC1=C(N)Oc2ccc3ccccc3c2C1c1cccc(Cl)c1 (stereo not drawn) [Example 6, 2-Amino-4-(3-chlorophenyl)-4H-naphtho 2,1-b!pyran-3-carbonitrile]	5.70	–
5.05	N#CC1=C(N)Oc2ccc3ccccc3c2C1c1ccc(F)cc1 (stereo not drawn) [Example 8, 2-Amino-4-(4-fluorophenyl)-4H-naphtho 2,1-b!pyran-3-carbonitrile]	5.82	–
7.30	N#CC1=C(N)Oc2ccc3ccccc3c2C1c1cccc(C(F)(F)F)c1 (stereo not drawn) [Example 10, 2-Amino-4-3-(trifluoromethyl)phenyl!-4H-naphtho 2,1-b!pyran-3-carbonitrile]	6.30	–
6.19	N#CC1=C(N)Oc2c(O)cc3ccccc3c2C1c1cccc([N+](=O)[O-])c1 (stereo not drawn) [Example 12, 2-Amino-10-hydroxy-4-(3-nitrophenyl)-4H-naphtho 2,1-b!pyran-3-carbonitrile]	5.52	–
5.30	N#CC1=C(N)Oc2ccc3cc(C(=O)O)ccc3c2C1c1cccc(C(=O)O)c1 (stereo not drawn) [Example 15, 2-Amino-3-cyano-4-(3-carboxyphenyl)-4H-naphtho 2,1-b!pyran-7-carboxylic acid]	–	–
5.10	CCOC=NC1=C(C#N)C(c2cccc([N+](=O)[O-])c2)c2c(ccc3cc(C(=O)OCC)ccc23)O1 (stereo not drawn) [Example 17, Ethyl 3-cyano-2-ethoxymethyleneamino-4-(3-nitrophenyl)-4H-naphtho 2,1-b!pyran-7-carboxylate]	5.22	–
